Test results: patent US20220125051A1, “PRE-HARVEST DESICCATION METHOD” (SYNGENTA CROP PROTECTION AG, priority 2019, published 2022)
Read-outs that look alike come from different tables or passages of the source.

Columns and labels:
Experiment in all cases: Post-emergence efficacy, Method A
Format in all cases: in vivo
[1] = tested on: Chenopodium album (CHEAL); conditions: Chenopodium album, post-emergence, 312 h, evaluated after 13 days
Method: (§1) Seeds of a variety of test species were sown in standard soil in pots. After cultivation for 14 days (post-emergence) under controlled conditions in a glasshouse (at 24/16° C., day/night; 14 hours light; 65% humidity), the plants were sprayed with an aqueous spray solution derived from the dissolution of the technical active ingredient formula (I) in a small amount of acetone and a special solvent and emulsifier mixture referred to as IF50 (11.12% Emulsogen EL360 TM+44.44% N-methylpyrrolidone+44.44% Dowanol DPM glycol ether), to create a 50 g/I solution which was then diluted to required concentration using 0.25% or 1% Empicol ESC70 (Sodium lauryl ether sulphate)+1% ammonium sulphate as diluent. The test plants were then grown in a glasshouse under controlled conditions (at 24/16° C., day/night; 14 hours light; 65% humidity) and watered twice daily. After 13 days the test was evaluated (100=total damage to plant; 0=no damage to plant).
(§2) Ipomoea hederacea (IPOHE), Euphorbia heterophylla (EPHHL), Chenopodium album (CHEAL), Amaranthus palmeri (AMAPA), Lolium perenne (LOLPE), Digitaria sanguinalis (DIGSA), Eleusine indica (ELEIN), Echinochloa crus-galli (ECHCG), Setaria faberi (SETFA)

[2] = tested on: Digitaria sanguinalis (DIGSA); conditions: Digitaria sanguinalis, post-emergence, 312 h, evaluated after 13 days
Method: as §1, §2

[3] = tested on: Eleusine indica (ELEIN); conditions: Eleusine indica, post-emergence, 312 h, evaluated after 13 days
Method: as §1, §2

[4] = tested on: Echinochloa crus-galli (ECHCG); conditions: Echinochloa crus-galli, post-emergence, 312 h, evaluated after 13 days
Method: as §1, §2

[5] = tested on: Lolium perenne (LOLPE); conditions: Lolium perenne, post-emergence, 312 h, evaluated after 13 days
Method: as §1, §2

[6] = tested on: Ipomoea hederacea (IPOHE); conditions: Ipomoea hederacea, post-emergence, 312 h, evaluated after 13 days
Method: as §1, §2

[7] = tested on: Setaria faberi (SETFA); conditions: Setaria faberi, post-emergence, 312 h, evaluated after 13 days
Method: as §1, §2

[8] = tested on: Euphorbia heterophylla (EPHHL); conditions: Euphorbia heterophylla, post-emergence, 312 h; Application rate 500 g/Ha; evaluated after 13 days; 100=total damage to plant, 0=no damage to plant; read-out: Control of weed species after post-emergence application, EPHHL
Method: as §1, §2

[9] = tested on: Amaranthus palmeri (AMAPA); conditions: Amaranthus palmeri, post-emergence, 312 h; Application Rate 500 g/Ha; evaluated after 13 days; Method A; read-out: Control of weed species after post-emergence application, AMAPA (100=total damage to plant; 0=no damage to plant)
Method: as §1, §2

[10] = Application rate 500 g/Ha, 100=total damage to plant, 0=no damage to plant, read-out: Control of weed species after post-emergence application, CHEAL
[11] = Application rate 500 g/Ha, 100=total damage to plant, 0=no damage to plant, read-out: Control of weed species after post-emergence application, DIGSA
[12] = Application rate 500 g/Ha, 100=total damage to plant, 0=no damage to plant, read-out: Control of weed species after post-emergence application, ELEIN
[13] = Application rate 500 g/Ha, 100=total damage to plant, 0=no damage to plant, read-out: Control of weed species after post-emergence application, ECHCG
[14] = Application rate 500 g/Ha, 100=total damage to plant, 0=no damage to plant, read-out: Control of weed species after post-emergence application, LOLPE
[15] = Application rate 500 g/Ha, 100=total damage to plant, 0=no damage to plant, read-out: Control of weed species after post-emergence application, IPOHE
[16] = Application rate 500 g/Ha, 100=total damage to plant, 0=no damage to plant, read-out: Control of weed species after post-emergence application, SETFA
[17] = Application Rate 500 g/Ha, Method A, read-out: Control of weed species after post-emergence application, CHEAL (100=total damage to plant; 0=no damage to plant)
[18] = Application Rate 500 g/Ha, Method A, read-out: Control of weed species after post-emergence application, DIGSA (100=total damage to plant; 0=no damage to plant)
[19] = Application Rate 500 g/Ha, Method A, read-out: Control of weed species after post-emergence application, ELEIN (100=total damage to plant; 0=no damage to plant)
[20] = Application Rate 500 g/Ha, Method A, read-out: Control of weed species after post-emergence application, ECHCG (100=total damage to plant; 0=no damage to plant)
[21] = Application Rate 500 g/Ha, Method A, read-out: Control of weed species after post-emergence application, LOLPE (100=total damage to plant; 0=no damage to plant)
[22] = Application Rate 500 g/Ha, Method A, read-out: Control of weed species after post-emergence application, IPOHE (100=total damage to plant; 0=no damage to plant)
[23] = Application Rate 500 g/Ha, Method A, read-out: Control of weed species after post-emergence application, SETFA (100=total damage to plant; 0=no damage to plant)

Compound | pest or weed control at 500 g/ha [1, 10] [%] | pest or weed control at 500 g/ha [2, 11] [%] | pest or weed control at 500 g/ha [3, 12] [%] | pest or weed control at 500 g/ha [4, 13] [%] | pest or weed control at 500 g/ha [5, 14] [%] | pest or weed control at 500 g/ha [6, 15] [%] | pest or weed control at 500 g/ha [7, 16] [%] | pest or weed control at 500 g/ha [8] [%] | pest or weed control at 500 g/ha [1, 17] [%] | pest or weed control at 500 g/ha [2, 18] [%] | pest or weed control at 500 g/ha [3, 19] [%] | pest or weed control at 500 g/ha [4, 20] [%] | pest or weed control at 500 g/ha [9] [%] | pest or weed control at 500 g/ha [5, 21] [%] | pest or weed control at 500 g/ha [6, 22] [%] | pest or weed control at 500 g/ha [7, 23] [%]
CS(=O)(=O)c1cnc(-c2cc[n+](CCS(=O)(=O)[O-])nc2)nc1 [Compound A15] | 90 | 60 | 80 | 40 | 10 | 10 | 50 | 20 |  |  |  |  |  |  |  | 
Cc1nccc(-c2cc[n+](CCC(=O)O)nc2)n1 [Compound A55] | 80 | 100 | 100 | 90 | 60 | 70 | 100 | 70 |  |  |  |  |  |  |  | 
CN(C)c1ccnc(-c2cc[n+](CCC(=O)[O-])nc2)n1 [Compound A45] | 60 | 80 | 80 | 90 | 30 | 20 | 100 | 50 |  |  |  |  |  |  |  | 
COc1nccc(-c2cc[n+](CCS(=O)(=O)[O-])nc2)n1 [Compound A60] | 100 | 100 | 100 | 90 | 70 | 60 | 90 | 70 |  |  |  |  |  |  |  | 
Cc1cc(-c2cc[n+](CCS(=O)(=O)[O-])nc2)nc(C)n1 [Compound A231] |  |  |  |  |  |  |  |  | 90 | 80 | 60 | 50 | 100 | 60 | 60 | 60
O=S(=O)([O-])CCC[n+]1ccc(-c2ccnc(Cl)n2)cn1 [Compound A53] | 100 | 80 | 70 | 70 | 40 | 70 | 80 | 80 |  |  |  |  |  |  |  | 
O=P(O)(O)CCC[n+]1ccc(-c2ncccn2)cn1 [Compound A233] |  |  |  |  |  |  |  |  | 100 | 60 | 50 | 60 | 100 | 20 | 70 | 70
O=S(=O)([O-])CCC[n+]1ccc(-c2ccc(O)nn2)cn1 [Compound A52] | 60 | 70 | 70 | 60 | 10 | 20 | 70 | 60 |  |  |  |  |  |  |  | 
